According to publication PMC10987111, “Rational Identification of Novel Antibody‐Drug Conjugate with High Bystander Killing Effect against Heterogeneous Tumors” (Advanced Science, 2024):
Read-outs that look alike come from different tables or passages of the source.

Experiments:
SKBR-3 = assay: Cell viability assay (CCK-8), SKBR-3; type: cell-based, human
Procedure: (§1) Cells were seeded in a 96‐well plate at 1000–4000 cells per well for different cell lines. After overnight incubation, serially diluted samples (100 µL) were added to each well, and the plate was incubated at 37°C for 72 h (payloads) or 108 h (ADCs). After the old medium was replaced with 100 µL fresh medium, 10 µL of the Cell Counting Kit‐8 (CCK‐8) was added to each well, and the plate was incubated at 37°C for 2 h. After gently agitating the plate, the absorbance at 450 nm was recorded using a BioTek Synergy microplate reader. EC50 values were calculated using GraphPad Prism 9.3 software. All assays were performed in triplicate.

MDA-MB-231 = assay: Cell viability assay (CCK-8), MDA-MB-231; type: cell-based, human; conditions: read-out: IC50 MDA-MB-231
Procedure: as §1

[1] = Parallel artificial membrane permeability assay (PAMPA); type: in vitro ADME; conditions: for Papp at 4 h, 10 µM: PAMPA
Procedure: PAMPA was performed by WuXi AppTec Co., Ltd. (Wuxi, China). In brief, 150 µL of 10.0 µM donor solutions (5% DMSO) were added to each well of the donor plate, whose PVDF membrane was precoated with 5 µL of 1% lecithin/dodecane mixture. Then, 300 µL of PBS was added to each well of the PTFE acceptor plate. After incubation for 4 h at room temperature with shaking at 300 rpm, the plate was removed from the incubator, and the solution was transferred from each acceptor and donor well and mixed with acetonitrile (containing internal standard) as samples. Acceptor samples and donor samples were all analyzed by LC‐MS/MS to determine permeability rates (Pe). All assays were performed in duplicates.

JIMT-1 = assay: Cell viability assay (CCK-8), JIMT-1; type: cell-based; conditions: Homo sapiens, JIMT-1, 72 h, read-out: IC50 JIMT-1
Procedure: as §1

MDA-MB-453 = assay: Cell viability assay (CCK-8), MDA-MB-453; type: cell-based; conditions: Homo sapiens, MDA-MB-453, 72 h, read-out: IC50 MDA-MB-453
Procedure: as §1, with “After overnight incubation, serially diluted samples (100 µL) were added to each well, and the plate was incubated at 37°C for 72 h (payloads) or 108 h (ADCs).” left out

NCI-N87 = assay: Cell viability assay (CCK-8), NCI-N87; type: cell-based; conditions: Homo sapiens, NCI-N87, 72 h, read-out: IC50 NCI-N87
Procedure: as §1, with “After overnight incubation, serially diluted samples (100 µL) were added to each well, and the plate was incubated at 37°C for 72 h (payloads) or 108 h (ADCs).” left out

MDA-MB-361 = assay: Cell viability assay (CCK-8), MDA-MB-361; type: cell-based; conditions: Homo sapiens, MDA-MB-361, 72 h, read-out: IC50 MDA-MB-361
Procedure: as §1

Topo I = target: T1, Topo I (Homo sapiens, UniProt P11387); assay: Topo I-mediated DNA cleavage assay; type: biochemical; conditions: 10 µM
T1 sequence (P11387 1-765): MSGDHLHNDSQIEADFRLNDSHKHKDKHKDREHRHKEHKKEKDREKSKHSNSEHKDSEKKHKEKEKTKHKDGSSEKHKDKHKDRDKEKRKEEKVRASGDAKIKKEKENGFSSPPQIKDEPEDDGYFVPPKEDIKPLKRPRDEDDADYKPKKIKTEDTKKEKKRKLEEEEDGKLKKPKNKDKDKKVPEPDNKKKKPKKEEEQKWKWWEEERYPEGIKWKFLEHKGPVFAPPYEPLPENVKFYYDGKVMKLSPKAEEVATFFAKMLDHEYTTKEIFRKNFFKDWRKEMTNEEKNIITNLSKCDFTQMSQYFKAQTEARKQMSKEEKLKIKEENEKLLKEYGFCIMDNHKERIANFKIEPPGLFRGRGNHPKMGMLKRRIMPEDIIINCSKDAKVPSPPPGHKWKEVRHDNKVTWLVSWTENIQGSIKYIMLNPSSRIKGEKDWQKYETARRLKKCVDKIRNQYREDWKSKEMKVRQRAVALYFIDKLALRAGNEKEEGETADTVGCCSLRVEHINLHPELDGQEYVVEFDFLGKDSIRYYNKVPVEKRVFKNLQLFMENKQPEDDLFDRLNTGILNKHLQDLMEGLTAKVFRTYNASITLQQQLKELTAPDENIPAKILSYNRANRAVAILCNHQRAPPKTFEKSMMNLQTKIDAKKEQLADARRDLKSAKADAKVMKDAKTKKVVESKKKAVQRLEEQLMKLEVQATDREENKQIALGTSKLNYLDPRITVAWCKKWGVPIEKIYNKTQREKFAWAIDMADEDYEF
Procedure: DNA cleavage assay was performed by Huawei Pharmaceutical Co., Ltd. (Jinan, China) with reference to previous literature about camptothecin derivatives.^[ [63] ^]

[2] = test system: NCI-N87 and MDA-MB-231/GFP co-culture system; assay: In vitro co-culture model for bystander-killing evaluation; type: cell-based, human; conditions: GFP fluorescence intensity and fluorescence microscopy
Procedure: After overnight incubation, a single concentration or a serially diluted solution of each ADC was added. Cell viability was evaluated after 120 h using the cell counting kit‐8 assay. The mixed cell viability was determined by CCK‐8 assay. […] In the supernatant proliferation inhibition experiment, gradient concentrations of ADC were incubated with NCI‐N87 (4000 cells per well) for 48 h.

[3] = test system: breast tumors with low HER2 expression; set-up: method as in ref 25, 26 = [25]; 25 S. Modi , W. Jacot , T. Yamashita , J. Sohn , M. Vidal , E. Tokunaga , J. Tsurutani , N. T. Ueno , A. Prat , Y. S. Chae , K. S. Lee , N. Niikura , Y. H. Park , B. Xu , X. Wang , M. Gil‐Gil , W. Li || [26]; 26 Cancer Discov. 2022 , 12 , 1828 .; conditions: breast tumors with low HER2 expression ref 25, 26; cited from earlier work
[4] = test system: NCI-N87 cells and MDA-MB-231/teLuc cells (2: 5 ratio) xenograft; assay: Xenograft mouse model of HER2-heterogeneous cancer (co-inoculation) with teLuc imaging; type: in vivo, BALB/c nude mice; conditions: single intravenous dose of 2 or 5 mg kg^-1
Procedure: On day 7, the tumors reached an average volume of ≈180 mm^3, mice were randomized to each group, and each ADC was given to the mice at a single dose of 5 or 2 mg kg^−1 through injection via the tail vein, with a volume of 10 mL kg^−1. The size of the tumor and body weight were monitored three times a week. The tumor volume was estimated on the mathematical formula, which is 1/2 × length × width^2.
Teal luciferase activity of each mouse in the HER2‐heterogeneous xenograft model was determined by an in vivo Imaging System (IVIS) Spectrum CT (PerkinElmer, USA) once a week (Day 7, 14, 21, 35) 10 min after intraperitoneal injection of pre‐dissolved DTZ (MeisenCTCC). The amount of luminescence was analyzed using analysis software (Living Image Software version 4.3.1; PerkinElmer) as average radiance (p per s per cm^2 per sr).

[5] = test system: HER2-low-expressing urothelial carcinoma; set-up: method as in ref 29 = [29]; 29 H. Xu , X. Sheng , L. Zhou , X. Yan , S. Li , Z. Chi , C. Cui , L. Si , B. Tang , L. Mao , B. Lian , X. Wang , X. Bai , J. Li , J. Guo , JCO 2022 , 40 , 4519 .; conditions: patients with HER2(IHC 1+), 5/13, phase II ref 29; cited from earlier work
[6] = payloads, 3 days (72 h), HER2++, read-out: IC50 SKBR-3
[7] = 10.0 µM donor solution, 4 h, room temperature
[8] = 10.0 µM donor solution, 4 h, room temperature, read-out: Peff (PAMPA permeability)
[9] = Homo sapiens, SK-BR-3, 72 h, read-out: IC50 SKBR-3
[10] = Homo sapiens, SK-BR-3, read-out: pIC50 (converted)
[11] = Homo sapiens, MDA-MB-231, payloads, 3 days (72 h), HER2-
[12] = Homo sapiens, SK-BR-3, Normalized from IC50 (μM) against SKBR-3, read-out: pIC50 (converted)
[13] = Homo sapiens, SK-BR-3, payloads, 3 days (72 h), HER2++, read-out: IC50 SKBR-3

## CC[C@@]1(O)C(=O)OCc2c1cc1n(c2=O)Cc2c-1nc1cc(F)c(C)c3c1c2[C@@H](NC(=O)C(O)c1ccccc1)CC3 (single isomer, unassigned) [Ed3]
SKBR-3; [6]
  IC50: 0.109 ± 0.0122 µM

## CC[C@@]1(O)C(=O)OCc2c1cc1n(c2=O)Cc2c-1nc1cc(F)c(C)c3c1c2[C@@H](NC(=O)C(O)c1ccccc1)CC3 (single isomer, unassigned) [Ed4]
MDA-MB-231; payloads, 3 days (72 h), HER2-
  IC50: 4.41 nM
[1]; [7]
  Peff (PAMPA permeability): 3.43 10^-6 cm/s
SKBR-3; [6]
  IC50: 0.0495 ± 0.00832 µM

## NC(=O)N1c2ccccc2C=Cc2ccccc21 [Carbamazepine, reference compound]
[1]; [8]
  Papp at 4 h, 10 µM: > 10 ×10⁻⁶ cm/s

## CCC1(O)C(=O)OCc2c1cc1n(c2=O)Cc2c-1nc1cc(F)c(C)c3c1c2C(NC(=O)CO)CC3 (stereo not shown) [DXd, reference compound]
MDA-MB-231; Homo sapiens, MDA-MB-231, 72 h
  IC50: 25.8 nM
[1]; [8]
  Papp at 4 h, 10 µM: 3.12 ×10⁻⁶ cm/s
JIMT-1
  IC50: 577 nM
MDA-MB-453
  IC50: 262 nM
NCI-N87
  IC50: 9.03 nM
MDA-MB-361
  IC50: 16.4 nM
SKBR-3; [9]
  IC50: 0.0739 ± 0.0171 µM
SKBR-3; [10]
  IC50: 0.074 µM

## CC[C@@]1(O)C(=O)OCc2c1cc1n(c2=O)Cc2c-1nc1cc(F)c(C)c3c1c2[C@@H](NC(=O)[C@@H](O)C(C)C)CC3 [Ed1]
SKBR-3; [9]
  IC50: 0.129 µM
SKBR-3; [10]
  IC50: 0.129 µM

## CC[C@@]1(O)C(=O)OCc2c1cc1n(c2=O)Cc2c-1nc1cc(F)c(C)c3c1c2[C@@H](NC(=O)[C@H](O)C(C)C)CC3 [Ed2]
MDA-MB-231; payloads, 3 days (72 h), HER2-
  IC50: 8.32 nM
[1]; [7]
  Peff (PAMPA permeability): 2.67 10^-6 cm/s
SKBR-3; [6]
  IC50: 0.0421 µM

## CC[C@@]1(O)C(=O)OCc2c1cc1n(c2=O)Cc2c-1nc1cc(F)c(C)c3c1c2[C@@H](NC(=O)C[C@@H](O)c1ccccc1)CC3 [Ed5]
SKBR-3; [6]
  IC50: 0.177 ± 0.0158 µM

## CC[C@@]1(O)C(=O)OCc2c1cc1n(c2=O)Cc2c-1nc1cc(F)c(C)c3c1c2[C@@H](NC(=O)[C@H](O)C(F)(F)F)CC3 [Ed6]
MDA-MB-231; [11]
  IC50: 9.46 nM
SKBR-3; [12]
  IC50: 0.0604 µM
SKBR-3; [13]
  IC50: 0.0604 µM

## CC[C@@]1(O)C(=O)OCc2c1cc1n(c2=O)Cc2c-1nc1cc(F)c(C)c3c1c2[C@@H](NC(=O)C(O)C(F)(F)F)CC3 (stereo partly shown) [Ed7]
MDA-MB-231; payloads, 3 days (72 h), HER2-
  IC50: 6.11 nM
[1]; [7]
  Peff (PAMPA permeability): 4.96 10^-6 cm/s
SKBR-3; [6]
  IC50: 0.0415 µM

## CC[C@@]1(O)C(=O)OCc2c1cc1n(c2=O)Cc2c-1nc1cc(F)c(C)c3c1c2[C@@H](NC(=O)C(C)(C)O)CC3 [Ed8]
MDA-MB-231; [11]
  IC50: 4.21 nM
[1]
  Papp at 4 h, 10 µM: 5.74 ×10⁻⁶ cm/s
SKBR-3; [12]
  IC50: 0.0144 µM
SKBR-3; [13]
  IC50: 0.0144 ± 0.00379 µM

## CC[C@@]1(O)C(=O)OCc2c1cc1n(c2=O)Cc2c-1nc1cc(F)c(C)c3c1c2[C@@H](NC(=O)C1(O)CCC1)CC3 [Ed9]
MDA-MB-231; [11]
  IC50: 2.69 nM
[1]
  Papp at 4 h, 10 µM: 5.66 ×10⁻⁶ cm/s
JIMT-1; payloads, 3 days, HER2+
  IC50: 193 nM
MDA-MB-453; payloads, 3 days, HER2+
  IC50: 120 nM
Topo I
  Topo I inhibitory activity: significantly lower than that of DXd
NCI-N87; payloads, 3 days, HER2++
  IC50: 1.17 nM
MDA-MB-361; payloads, 3 days, HER2+
  IC50: 1.69 nM
SKBR-3; [12]
  IC50: 0.0132 µM
SKBR-3; [13]
  IC50: 0.0131 ± 0.00424 µM

## CC[C@@]1(O)C(=O)OCc2c1cc1n(c2=O)Cc2c-1nc1cc(F)c(C)c3c1c2[C@@H](NC(=O)C1(O)CCCC1)CC3 [Ed10]
MDA-MB-231; Homo sapiens, MDA-MB-231, 72 h
  IC50: 5.17 nM
Topo I
  Topo I inhibitory activity: lose their inhibitory activity
SKBR-3; [9]
  IC50: 0.0178 ± 0.00369 µM
SKBR-3; [10]
  IC50: 0.0178 µM

## CC[C@@]1(O)C(=O)OCc2c1cc1n(c2=O)Cc2c-1nc1cc(F)c(C)c3c1c2[C@@H](NC(=O)C1(O)CCCCC1)CC3 [Ed11]
MDA-MB-231; payloads, 3 days (72 h), HER2-
  IC50: 5.43 nM
[1]; [7]
  Peff (PAMPA permeability): 6.12 10^-6 cm/s
SKBR-3; [6]
  IC50: 0.0177 ± 0.00534 µM

## T-DM1
[2]
  killing of both NCI-N87 and MDA-MB-231/GFP cells in co-culture: did not
[3]
  effect: limited effect
[4]
  tumor volume change: less effective

B1: Disitamab Vedotin (conjugate, chains of the INN, looked up)
VH: EVQLVQSGAEVKKPGATVKISCKVSGYTFTDYYIHWVQQAPGKGLEWMGRVNPDHGDSYYNQKFKDKATITADKSTDTAYMELSSLRSEDTAVYFCARNYLFDHWGQGTLVTVSS
VL: DIQMTQSPSSVSASVGDRVTITCKASQDVGTAVAWYQQKPGKAPKLLIYWASIRHTGVPSRFSGSGSGTDFTLTISSLQPEDFATYYCHQFATYTFGGGTKVEIK
modifications: vedotin (MMAE) payload
[5]
  ORR: 38%
